Data published in ChEMBL document CHEMBL1201862, “PubChem BioAssay data set” (2004).
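Method: 48-hour compound exposure of cells in 96-well plates, five concentrations, linear interpolation of endpoints. Abbreviation: GI50, concentration required for 50% inhibition of growth.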 Activity calls are given as the source filed them. No stated cut-off is given here; in the data, active = GI50 up to about 1.1 µM and inactive = higher.

Assays:
Assay in all cases: DTP human tumour cell line panel, 48 h
Hs-578T = tested on: Hs-578T
NCI-H460 = tested on: NCI-H460
T47D = tested on: T47D
LOX IMVI = tested on: LOX IMVI
OVCAR-8 = tested on: OVCAR-8
HCT-116 = tested on: HCT-116
MOLT-4 = tested on: MOLT-4
SNB-19 = tested on: SNB-19
SN12C = tested on: SN12C
MDA-N = tested on: MDA-N
SK-MEL-2 = tested on: SK-MEL-2
SNB-75 = tested on: SNB-75
UACC-257 = tested on: UACC-257
DU-145 = tested on: DU-145
SF-268 = tested on: SF-268
TK-10 = tested on: TK-10
UACC-62 = tested on: UACC-62
786-0 = tested on: 786-0
HCC 2998 = tested on: HCC 2998
OVCAR-3 = tested on: OVCAR-3
BT-549 = tested on: BT-549
MDA-MB-435 = tested on: MDA-MB-435
UO-31 = tested on: UO-31
EKVX = tested on: EKVX
SK-OV-3 = tested on: SK-OV-3
M14 = tested on: M14
CAKI-1 = tested on: CAKI-1
NCI/ADR-RES = tested on: NCI/ADR-RES
Malme-3M = tested on: Malme-3M
KM12 = tested on: KM12
SR = tested on: SR
NCI-H226 = tested on: NCI-H226
OVCAR-5 = tested on: OVCAR-5
MDA-MB-231 = tested on: MDA-MB-231
CCRF-CEM = tested on: CCRF-CEM
SF-295 = tested on: SF-295
HOP-92 = tested on: HOP-92
NCI-H23 = tested on: NCI-H23
SF-539 = tested on: SF-539
A498 = tested on: A498
SK-MEL-5 = tested on: SK-MEL-5
SK-MEL-28 = tested on: SK-MEL-28
HL-60 = tested on: HL-60
HT-29 = tested on: HT-29
U-251 = tested on: U-251
COLO 205 = tested on: COLO 205
RPMI-8226 = tested on: RPMI-8226
HCT-15 = tested on: HCT-15
RXF 393 = tested on: RXF 393
PC-3 = tested on: PC-3
OVCAR-4 = tested on: OVCAR-4
HOP-62 = tested on: HOP-62
A549 = tested on: A549
ACHN = tested on: ACHN
NCI-H522 = tested on: NCI-H522
MCF7 = tested on: MCF7
K562 = tested on: K562
SW-620 = tested on: SW-620
IGROV-1 = tested on: IGROV-1

In the case of `NC(=O)c1ccc(S(=O)(=NS(=O)(=O)c2ccccc2)c2ccc(C(N)=O)cc2)cc1`, the GI50 (Hs-578T) is reported as > 100 µM (inactive), the GI50 (NCI-H460) is reported as > 100 µM (inactive) and the GI50 (T47D) is reported as > 100 µM (inactive). For the same molecule, the GI50 (LOX IMVI) was > 100 µM (inactive), the GI50 (OVCAR-8) was > 100 µM (inactive) and the GI50 (HCT-116) was > 100 µM (inactive). The GI50 (MOLT-4) was > 100 µM (inactive), the GI50 (SNB-19) was > 100 µM (inactive) and the GI50 (SN12C) was > 100 µM (inactive). For the same molecule, the GI50 (MDA-N) was > 100 µM (inactive), the GI50 (SK-MEL-2) was > 100 µM (inactive) and the GI50 (SNB-75) was > 100 µM (inactive). The GI50 (UACC-257) was > 100 µM (inactive), the GI50 (DU-145) was > 100 µM (inactive) and the GI50 (SF-268) was > 100 µM (inactive). For the same molecule, the GI50 (TK-10) was > 100 µM (inactive), the GI50 (UACC-62) was > 100 µM (inactive) and the GI50 (786-0) was > 100 µM (inactive). For the same molecule, the GI50 (HCC 2998) was > 100 µM (inactive), the GI50 (OVCAR-3) was > 100 µM (inactive) and the GI50 (BT-549) was > 100 µM (inactive). For the same molecule, the GI50 (MDA-MB-435) was > 100 µM (inactive), the GI50 (UO-31) was > 100 µM (inactive) and the GI50 (EKVX) was > 100 µM (inactive). For the same molecule, the GI50 (SK-OV-3) was > 100 µM (inactive), the GI50 (M14) was > 100 µM (inactive) and the GI50 (CAKI-1) was > 100 µM (inactive). The GI50 (NCI/ADR-RES) was > 100 µM (inactive), the GI50 (Malme-3M) was > 100 µM (inactive) and the GI50 (KM12) was > 100 µM (inactive). The GI50 (SR) was > 100 µM (inactive), the GI50 (NCI-H226) was > 100 µM (inactive) and the GI50 (OVCAR-5) was > 100 µM (inactive). The GI50 (MDA-MB-231) was > 100 µM (inactive), the GI50 (CCRF-CEM) was > 100 µM (inactive) and the GI50 (SF-295) was > 100 µM (inactive). The GI50 (HOP-92) was > 100 µM (inactive), the GI50 (NCI-H23) was > 100 µM (inactive) and the GI50 (SF-539) was > 100 µM (inactive). For the same molecule, the GI50 (A498) was > 100 µM (inactive), the GI50 (SK-MEL-5) was > 100 µM (inactive) and the GI50 (SK-MEL-28) was > 100 µM (inactive). The GI50 (HL-60) was > 100 µM (inactive), the GI50 (HT-29) was > 100 µM (inactive) and the GI50 (U-251) was > 100 µM (inactive). The GI50 (COLO 205) was > 100 µM (inactive), the GI50 (RPMI-8226) was > 100 µM (inactive) and the GI50 (HCT-15) was > 100 µM. The GI50 (RXF 393) was > 100 µM (inactive), the GI50 (PC-3) was > 100 µM (inactive) and the GI50 (OVCAR-4) was > 100 µM (inactive). The GI50 (HOP-62) was > 100 µM (inactive), the GI50 (A549) was > 100 µM (inactive) and the GI50 (ACHN) was > 100 µM (inactive). For the same molecule, the GI50 (NCI-H522) was > 100 µM (inactive), the GI50 (MCF7) was > 100 µM (inactive) and the GI50 (K562) was > 100 µM (inactive). For the same molecule, the GI50 (SW-620) was > 100 µM (inactive) and the GI50 (IGROV-1) was > 100 µM (inactive).

For `O=C(/C=c1\oc(=O)/c(=C/C(=O)c2ccc(Cl)cc2)oc1=O)c1ccc(Cl)cc1`, the GI50 (Hs-578T) was 34.2 µM (inactive), the GI50 (NCI-H460) was > 100 µM (inactive) and the GI50 (T47D) was 53.7 µM (inactive). The GI50 (LOX IMVI) was 48.4 µM (inactive), the GI50 (OVCAR-8) was > 100 µM (inactive) and the GI50 (HCT-116) was > 100 µM (inactive). The GI50 (MOLT-4) was 23.8 µM (inactive), the GI50 (SNB-19) was > 100 µM (inactive) and the GI50 (SN12C) was > 100 µM (inactive). For the same molecule, the GI50 (MDA-N) was > 100 µM (inactive), the GI50 (SK-MEL-2) was > 100 µM (inactive) and the GI50 (UACC-257) was > 100 µM (inactive). For the same molecule, the GI50 (DU-145) was > 100 µM (inactive), the GI50 (SF-268) was 97.3 µM (inactive) and the GI50 (TK-10) was > 100 µM (inactive). The GI50 (UACC-62) was > 100 µM (inactive), the GI50 (786-0) was > 100 µM (inactive) and the GI50 (HCC 2998) was > 100 µM (inactive). The GI50 (OVCAR-3) was 49.9 µM (inactive), the GI50 (BT-549) was 10.4 µM (inactive) and the GI50 (MDA-MB-435) was > 100 µM (inactive). For the same molecule, the GI50 (UO-31) was > 100 µM (inactive), the GI50 (EKVX) was > 100 µM (inactive) and the GI50 (SK-OV-3) was > 100 µM (inactive). The GI50 (M14) was > 100 µM (inactive), the GI50 (CAKI-1) was > 100 µM (inactive) and the GI50 (NCI/ADR-RES) was > 100 µM (inactive). For the same molecule, the GI50 (Malme-3M) was 51.3 µM (inactive), the GI50 (KM12) was > 100 µM (inactive) and the GI50 (SR) was 52.6 µM (inactive). For the same molecule, the GI50 (NCI-H226) was > 100 µM (inactive), the GI50 (OVCAR-5) was > 100 µM (inactive) and the GI50 (MDA-MB-231) was > 100 µM (inactive). For the same molecule, the GI50 (CCRF-CEM) was 39.4 µM (inactive), the GI50 (SF-295) was > 100 µM (inactive) and the GI50 (HOP-92) was 43.1 µM (inactive). For the same molecule, the GI50 (NCI-H23) was > 100 µM (inactive), the GI50 (SF-539) was > 100 µM (inactive) and the GI50 (A498) was > 100 µM (inactive). The GI50 (SK-MEL-5) was > 100 µM (inactive), the GI50 (SK-MEL-28) was > 100 µM (inactive) and the GI50 (HL-60) was > 100 µM (inactive). For the same molecule, the GI50 (HT-29) was > 100 µM (inactive), the GI50 (U-251) was > 100 µM (inactive) and the GI50 (COLO 205) was > 100 µM (inactive). The GI50 (RPMI-8226) was > 100 µM (inactive), the GI50 (HCT-15) was 98.2 µM and the GI50 (RXF 393) was 60.7 µM (inactive). For the same molecule, the GI50 (PC-3) was > 100 µM (inactive), the GI50 (OVCAR-4) was 39.6 µM (inactive) and the GI50 (HOP-62) was > 100 µM (inactive). The GI50 (A549) was > 100 µM (inactive), the GI50 (ACHN) was > 100 µM (inactive) and the GI50 (NCI-H522) was 19.7 µM (inactive). For the same molecule, the GI50 (MCF7) was > 100 µM (inactive), the GI50 (K562) was > 100 µM (inactive) and the GI50 (IGROV-1) was 63.4 µM (inactive).
